The test system of series [1] is prestin. The series can be described thus: serum prestin level in cisplatin-treated rats. To be noted: 72 hours after treatment, compared to controls. The format is in vivo. From the text:
Rats are more vulnerable to ototoxic damage than mice.

Series [2] has as its system prestin. The series can be described thus: serum prestin concentration in mice treated with cisplatin. To be noted: same time course up to two weeks after exposure. The format is in vivo. As for the experimental part:
Although the hearing threshold measured by ABR was unaffected, prestin levels continued to change after exposure to cisplatin.
The ototoxin drug cisplatin (a commonly used chemotherapeutic agent) was administered and then functional assessment of hearing and measurement of prestin were carried out at several intervals up to two weeks after exposure. Hearing was assessed using a standard testing protocol called click-evoked auditory brainstem response (ABR) (FIG. 13).

The structures appear in SMILES notation.

On to `N.N.[Cl][Pt][Cl]` [cisplatin], for which, in series [1], the serum prestin level entry was “elevated”. In series [2], the “serum concentrations of prestin” value is “increasing”.

For the origin of these results see patent US20160238617A1, “[…] AND METHODS […] TO INNER EAR DISORDERS” (THE UNIVERSITY OF CONNECTICUT, priority 2015, published 2016).
